Data set [1] can be described thus: Antagonism of Quinolinic Acid Induced Seizures (clonic-tonic seizures after icv quinolinic acid). Format: in vivo, mice. To be noted: for ED50 / responders at 64 mg/kg: Mus musculus; for responders at 64 mg/kg: 64 mg/Kg IP, animals protected/tested, quinolinic acid 7.7 μg icv, read-out: Mice Protected 64 mg/Kg IP.
For data set [2] the following is noted: administration to rodents; background; cited from earlier work.
Data set [3] in a line: Hippocampal neurodegeneration after carotid artery occlusion (CA1 damage score). In kind it is in vivo, Male mongolian gerbils. The text has this:
Male mongolian gerbils (Tumblebrook Farms) weighing 45 to 60 gms were used for the experiments measuring hippocampal neurodegeneration after carotid artery occlusion. The gerbils were housed in small groups and allowed ad lib access to food and water prior to surgery. Following administration of drug, the gerbils were anesthetized with halothane (3.5%) and prepared for surgery.
An incision was made in the midline region of the neck and both carotid arteries were exposed and isolated from surrounding tissue. In sham operated animals the wounds were then closed and the animals were allowed to recover. In the hypoxic group the isolated carotid arteries were occluded for 5 minutes with 7 mm Mayfield aneurysm clips. Loss of blood flow to the cortex was confirmed by observation with an opthalmoscope of the blanching of the radial arteries in the retina of the ipsilateral eye. After 5 minutes the clips were removed and the gerbils were placed in their home cages and allowed to recover. After 7 days the gerbils were sacrificed by an overdose of chloral hydrate and perfused intracardially with 10 ml of 1% […] followed by 15 ml of 10% buffered formalin. […] Damage to the CA1 region was assessed by 3 observers who were blind to the previous treatment of the gerbil. This damage was assessed according to the scale below. […]

For data set [4] the following is noted: gerbils; background; cited from earlier work.
The conditions of data set [5]: mice; background; cited from earlier work.
Setting [6] is: 0.5 h, IP, 30', read-out: ED50 IP.

The structures appear in SMILES notation. Like-named read-outs stand apart in the source and are kept apart here. Some results are limits rather than exact numbers.

By ED50 is commonly meant the dose that gives a 50% effect, or the effect in half of the subjects. For `CCn1nc(-c2cccs2)n(C)c1=O` [2-Thienyl, C2 H5, CH3, 5-(2-thienyl)-2,4-dihydro-2-ethyl-4-methyl-3H-1,2,4-triazol-3-one], in data set [1] (IP, range, time not given, printed near the Mice Protected column, read-out: ED50 IP), the ED50 is 8 to 64 mg/kg.
For the compound `COc1ccc(-c2n[nH]c(=O)n2C)cc1OC1CCCC1` [3-(cyclo-C5 H9 O)--4-CH3 OC6 H3, H, CH3], the responders at 64 mg/kg in data set [1] came out at 20%.
`Cn1c(-c2ccc(Cl)cc2)n[nH]c1=O` [4-ClC6 H4, H, CH3]: in data set [1], the responders at 64 mg/kg was 60%.
Same read-out and setting: the same measure for `Cn1nc(-c2ccccc2Cl)n(C)c1=O` [2-ClC6 H4, CH3, CH3]: 60%.
`CCn1c(-c2ccc(Cl)cc2)n[nH]c1=O` [4-ClC6 H4, H, C2 H5, 5-(4-Chlorophenyl)2,4-dihydro-4-ethyl-3H-1,2,4-triazol-3-one]: the ED50 in data set [1] (setting [6]) is 51 mg/kg.
Regarding `CCCCOc1cc(-c2nn(C)c(=O)n2C)ccc1OC` [3-(n-C4 H9 O)--4-CH3 OC6 H3, CH3, CH3], in data set [1], the responders at 64 mg/kg worked out at 60%.
Consider `O=C(O)c1cccnc1C(=O)O` [quinolinic acid, reference compound], for which, in data set [1] (7.7 μg in 5 μl saline icv), the “clonic-tonic seizures caused in otherwise untreated mice” value was 90-100%. Moreover, the “neuronal degeneration (in words)” value in data set [2] is recorded as “shown to cause neuronal degeneration”.
With `N[C@@H](Cn1oc(=O)[nH]c1=O)C(=O)O` [quisqualic acid], the “neuronal degeneration (in words)” value in data set [2] is reported as “shown to cause neuronal degeneration”.
Regarding `C=C(C)[C@H]1CN[C@H](C(=O)O)[C@H]1CC(=O)O` [kainic acid], the “neuronal degeneration (in words)” value in data set [2] is “shown to cause neuronal degeneration”.
Take `Cn1c(-c2ccccc2Cl)n[nH]c1=O` [2-ClC6 H4, H, CH3, 5-(2-chlorophenyl)-2,4-dihydro-4-methyl-3H-1,2,4-triazol-3-one]: the median effective dose (ED50) in data set [1] (setting [6]) is 64.9 mg/kg; in data set [1] (IP, 2 hr, read-out: ED50 IP) it was above 64 mg/kg. Also, in data set [1], the responders at 64 mg/kg amounted to 60%.
`Cn1nc(-c2ccccc2)n(C)c1=O` [C6 H5, CH3, CH3]: the responders at 64 mg/kg in data set [1] was 50%.
With `Cn1nc(-c2ccc(Cl)cc2)n(C)c1=O` [4-ClC6 H4, CH3, CH3, 5-(4-chlorophenyl)-2,4-dihydro-2,4-dimethyl-3H-1,2,4-triazol-3-one], the responders at 64 mg/kg in data set [1] worked out at 80%.
Turning to `C[C@]12N[C@H](Cc3ccccc31)c1ccccc12` [MK-801, (S)-10,11-dihydro-5-methyl-5H-dibenzo(a,d)cyclohepten-5,10-imine], the “reduction of apparent damage” value in data set [3] (5 mg/kg, 30 minutes prior to ligation) is 28%. In addition, in data set [4], the “antagonism of hippocampal neurodegeneration (in words)” value was “antagonize hippocampal neurodegeneration after carotid artery occlusion in gerbils”. Also, in data set [5], the “antagonism of quinolinic acid seizures (in words)” value is reported as “antagonize the seizures induced in mice by quinolinic acid”.
For `Cn1c(-c2ccc(Cl)c(Cl)c2)n[nH]c1=O` [3,4-Cl2 C6 H3, H, CH3, 5-(3,4-dichlorophenyl)-2,4-dihydro-4-methyl-3H-1,2,4-triazol-3-one], the “Mice Protected” value in data set [1] (@ 32 mg/Kg IP, (60')) is listed as 5/10. Further, the ED50 in data set [1] (setting [6]) was below 8 mg/kg; in data set [1] (PO, time not given, read-out: ED50 PO), above 16 mg/kg.
In the case of `Cn1c(-c2ccccc2)n[nH]c1=O` [C6 H5, H, CH3], in data set [1], the responders at 64 mg/kg was found to be 50%.
Consider `CCCCOc1cc(-c2n[nH]c(=O)n2C)ccc1OC` [3-(n-C4 H9 O)--4-CH3 OC6 H3, H, CH3, 5-[3-(n-butoxy)-4-methoxyphenyl]-2,4-dihydro-4-methyl-3H-1,2,4-triazol-3-one], for which, in data set [1], the responders at 64 mg/kg was determined as 70%.
Regarding `COc1ccc(-c2nn(C)c(=O)n2C)cc1OC1CCCC1`, the responders at 64 mg/kg in data set [1] worked out at 60%.
In turn, `CCn1c(-c2ccc(Cl)cc2)nn(C)c1=O` [4-ClC6 H4, CH3, C2 H5, 5-(4-Chlorophenyl)-2,4-dihydro-4-ethyl-2-methyl-3H-1,2,4-triazol-3-one] returned a reduction of damage in data set [3] (40 mg/kg i.p.) of 66%. Further, the ED50 in data set [1] (setting [6]) was 25.9 mg/kg; in data set [1] (0.5 h, PO, 30', read-out: ED50 PO) it was 29.9 mg/kg; in data set [1] (1 h, IP, 60', read-out: ED50 IP), 17.2 mg/kg; in data set [1] (IP, 2 hr, read-out: ED50 IP) it was 39.2 mg/kg; in data set [1] (PO, 4 hr, read-out: ED50 PO), 52.3 mg/kg; in data set [1] (PO, 24 hr, read-out: ED50 PO), above 128 mg/kg.
On to `Cn1c(-c2ccncc2)n[nH]c1=O` [4-Pyridyl, H, CH3, 2,4-Dihydro-4-methyl-5-(4-pyridinyl)-3H-1,2,4-triazol-3-one], for which, in data set [1], the responders at 64 mg/kg came to 30%.
Same read-out and setting: the same measure for `CCn1nc(-c2ccccc2)n(C)c1=O` [C6 H5, C2 H5, CH3]: 50%.

These data come from patent US5436252A, “5-aryl-3H-1,2,4-triazol-3-ones and their use in the treatment of neurodegenerative disorders” (Merrell Dow Pharmaceuticals Inc., priority 1990, dated 1995).
